According to US20020137929A1, “1 - (3-heterocyclylphenyl) isothiourea, -isourea, -guanidine and -amidine herbicidal agents” (Intellectual Property Department, BASF Aktiengesellschaft, priority 1998, published 2002):

Key:
ABUTH (Velvetleaf) = experiment: Preemergence herbicidal evaluation; format: in vivo, Abutilon theophrasti; settings: rated 4-5 weeks after treatment
Summary of the method: (§1)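 Rating at 4–5 wk post-spray on a 0–9 visual scale vs control. Application: aqueous acetone, ~0.0156–0.500 kg/ha, to soil surface after seeding, preemergence.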

[1] = system: TRZAWR (Wheat, Winter, cv Riband); experiment: Postemergence herbicidal evaluation; format: in vivo, Triticum aestivum; settings: for TRZAWR herbicidal rating: postemergence
Summary of the method: (§2)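 Two-week seedlings sprayed postemergence at 40 psi; formulation: 1:1 acetone/water, 0.5% TWEEN 20; application ≈0.0156–0.500 kg/ha. Greenhouse grow-out, then 0–9 visual scoring at 4–5 weeks.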

ZEAMX (Corn, Field) = experiment: Preemergence herbicidal evaluation; format: in vivo, Zea mays; settings: rated 4-5 weeks after treatment
Summary of the method: as §1

[2] = system: IPOHE (Morningglory, Ivyleaf); experiment: Preemergence herbicidal evaluation; format: in vivo, Ipomoea hederacea; settings: rated 4-5 weeks after treatment
Summary of the method: as §1

CYPIR (Rice Flatsedge) = experiment: Preemergence weed control under flooded paddy conditions; format: in vivo, Cyperus iria; settings: rated 3-4 weeks after treatment
Summary of the method: (§3)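 Seeds or propagules sown in silt loam kept flooded 1.5-3 cm; compounds in 50/50 acetone/water pipetted into flood water at about 0.0313 to 0.500 kg/ha. Greenhouse; visual 0-9 rating versus untreated control 3-4 weeks after treatment.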

GALAP (Galium) = experiment: Postemergence herbicidal evaluation; format: in vivo, Galium aparine; settings: for GALAP herbicidal rating: postemergence
Summary of the method: as §2

SETVI (Foxtail, Green) [3] = experiment: Preemergence herbicidal evaluation; format: in vivo, Setaria viridis; settings: rated 4-5 weeks after treatment
Summary of the method: as §1

ECHCG (Barnyardgrass) = experiment: Preemergence herbicidal evaluation; format: in vivo, Echinochloa crus-galli; settings: rated 4-5 weeks after treatment
Summary of the method: as §1

MOOVA (Monochoria) = experiment: Preemergence weed control under flooded paddy conditions; format: in vivo, Monochoria vaginalis; settings: rated 3-4 weeks after treatment
Summary of the method: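 Ratings on a 0-9 visual scale cover stand, vigor, malformation, size, chlorosis and overall appearance relative to a control, taken three to four weeks post-treatment. Application was into flood water over freshly sown silt loam at roughly 0.0313 to 0.500 kg/ha.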

[4] = system: SAGPY (Arrowhead (Pygmaea)); experiment: Postemergence weed control under flooded paddy conditions; format: in vivo, Sagittaria pygmaea; settings: postemergence weeds, 3-4 weeks after treatment
Summary of the method: (§4)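 With weeds 3 to 5 cm tall and rice at the 1.5 to 2.5 leaf stage, containers were flooded and water held 1.5 to 3 cm above soil. Compounds in 50/50 v/v aqueous/acetone went into the flood water at about 0.0313 to 0.500 kg/ha a.i. Effects were visually rated 0–9 against controls after three to four weeks in the greenhouse.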

[5] = system: IPOHE (Morningglory, Ivyleaf); experiment: Postemergence herbicidal evaluation; format: in vivo, Ipomoea hederacea; settings: for IPOHE herbicidal rating: postemergence
Summary of the method: as §2

SETVI (Foxtail, Green) [6] = experiment: Postemergence herbicidal evaluation; format: in vivo, Setaria viridis; settings: for SETVI herbicidal rating: postemergence
Summary of the method: as §2

[7] = system: ECHORC (Watergrass (Calif.)); experiment: Postemergence weed control under flooded paddy conditions; format: in vivo, Echinochloa oryzoides; settings: postemergence weeds, 3-4 weeks after treatment
Summary of the method: as §4

[8] = system: ECHORC (Watergrass (Calif.)); experiment: Preemergence weed control under flooded paddy conditions; format: in vivo, Echinochloa oryzoides; settings: rated 3-4 weeks after treatment
Summary of the method: as §3

CCOC(=O)CN1C(=O)C(=C(C)C)S/C1=N/c1cc(-n2c(=O)cc(C(F)(F)F)n(C)c2=O)c(F)cc1Cl [Compound 20, Ethyl 2-{{2-chloro-5-[3,6-dihydro-3-methyl-2,6-dioxo-4-(trifluoromethyl)-1(2H)-pyrimidinyl]-4-fluorophenyl}imino}-5-isopropylidene-4-oxo-3-thiazolidineacetate]
ABUTH preemergence herbicidal rating (ABUTH (Velvetleaf); rate 0.0625 kg/ha): 0.0
ABUTH preemergence herbicidal rating (ABUTH (Velvetleaf); rate 0.1250 kg/ha): 9.0
ABUTH preemergence herbicidal rating (ABUTH (Velvetleaf); rate 0.2500 kg/ha): 9.0
TRZAWR herbicidal rating ([1]; rate 0.0158 kg/ha): 3.5
TRZAWR herbicidal rating ([1]; rate 0.0315 kg/ha): 4.0
TRZAWR herbicidal rating ([1]; rate 0.0630 kg/ha): 4.0
ZEAMX preemergence herbicidal rating (ZEAMX (Corn, Field); rate 0.0625 kg/ha): 0.0
ZEAMX preemergence herbicidal rating (ZEAMX (Corn, Field); rate 0.1250 kg/ha): 0.0
ZEAMX preemergence herbicidal rating (ZEAMX (Corn, Field); rate 0.2500 kg/ha): 0.0
IPOHE preemergence herbicidal rating ([2]; rate 0.0625 kg/ha): 0.0
IPOHE preemergence herbicidal rating ([2]; rate 0.1250 kg/ha): 0.0
IPOHE preemergence herbicidal rating ([2]; rate 0.2500 kg/ha): 2.0
Herbicidal rating CYPIR (CYPIR (Rice Flatsedge); 0.1160 kg/ha): 0.0
Herbicidal rating CYPIR (CYPIR (Rice Flatsedge); 0.2310 kg/ha): 0.0
Herbicidal rating CYPIR (CYPIR (Rice Flatsedge); 0.4630 kg/ha): 0.0
GALAP herbicidal rating (GALAP (Galium); rate 0.0158 kg/ha): 1.0
GALAP herbicidal rating (GALAP (Galium); rate 0.0315 kg/ha): 2.0
GALAP herbicidal rating (GALAP (Galium); rate 0.0630 kg/ha): 6.0
SETVI preemergence herbicidal rating (SETVI (Foxtail, Green) [3]; rate 0.0625 kg/ha): 0.0
SETVI preemergence herbicidal rating (SETVI (Foxtail, Green) [3]; rate 0.1250 kg/ha): 0.0
SETVI preemergence herbicidal rating (SETVI (Foxtail, Green) [3]; rate 0.2500 kg/ha): 7.0
ECHCG preemergence herbicidal rating (ECHCG (Barnyardgrass); rate 0.0625 kg/ha): 0.0
ECHCG preemergence herbicidal rating (ECHCG (Barnyardgrass); rate 0.1250 kg/ha): 0.0
ECHCG preemergence herbicidal rating (ECHCG (Barnyardgrass); rate 0.2500 kg/ha): 0.0
Herbicidal rating MOOVA (MOOVA (Monochoria); 0.1160 kg/ha): 9.0
Herbicidal rating MOOVA (MOOVA (Monochoria); 0.2310 kg/ha): 9.0
Herbicidal rating MOOVA (MOOVA (Monochoria); 0.4630 kg/ha): 9.0
Herbicidal rating SAGPY ([4]; rate 0.1160 kg/ha): 0.0
Herbicidal rating SAGPY ([4]; rate 0.2310 kg/ha): 0.0
Herbicidal rating SAGPY ([4]; rate 0.4630 kg/ha): 3.0
IPOHE herbicidal rating ([5]; rate 0.0158 kg/ha): 9.0
IPOHE herbicidal rating ([5]; rate 0.0315 kg/ha): 3.0
IPOHE herbicidal rating ([5]; rate 0.0630 kg/ha): 9.0
SETVI herbicidal rating (SETVI (Foxtail, Green) [6]; rate 0.0158 kg/ha): 1.0
SETVI herbicidal rating (SETVI (Foxtail, Green) [6]; rate 0.0315 kg/ha): 1.0
SETVI herbicidal rating (SETVI (Foxtail, Green) [6]; rate 0.0630 kg/ha): 4.0
Herbicidal rating ECHORC ([7]; rate 0.1160 kg/ha): 7.0
Herbicidal rating ECHORC ([7]; rate 0.2310 kg/ha): 7.0
Herbicidal rating ECHORC ([7]; rate 0.4630 kg/ha): 7.0
Herbicidal rating ECHORC ([8]; 0.1160 kg/ha): 7.0
Herbicidal rating ECHORC ([8]; 0.2310 kg/ha): 7.0
Herbicidal rating ECHORC ([8]; 0.4630 kg/ha): 7.0

Cn1c(C(F)(F)F)cc(=O)n(-c2cc(/N=C3/SCC(=O)N3CC(=O)O)c(Cl)cc2F)c1=O [Compound 52, 2-{{2-Chloro-5-[3,6-dihydro-3-methyl-2,6-dioxo-4-(trifluoromethyl)-1(2H)-pyrimidinyl]-4-fluoro-phenyl}imino}-4-oxo-3-thiazolidineacetic acid]
Preemergence herbicidal rating ABUTH (ABUTH (Velvetleaf); rate 0.0313 kg/ha): 9.0
Preemergence herbicidal rating ABUTH (ABUTH (Velvetleaf); rate 0.0625 kg/ha): 9.0
Preemergence herbicidal rating ABUTH (ABUTH (Velvetleaf); rate 0.1250 kg/ha): 9.0
Preemergence herbicidal rating ABUTH (ABUTH (Velvetleaf); rate 0.2500 kg/ha): 9.0
Postemergence herbicidal rating TRZAWR ([1]; Rate 0.0158 kg/ha): 2.5
Postemergence herbicidal rating TRZAWR ([1]; Rate 0.0315 kg/ha): 3.0
Postemergence herbicidal rating TRZAWR ([1]; Rate 0.0630 kg/ha): 4.5
Preemergence herbicidal rating ZEAMX (ZEAMX (Corn, Field); rate 0.0313 kg/ha): 0.0
Preemergence herbicidal rating ZEAMX (ZEAMX (Corn, Field); rate 0.0625 kg/ha): 0.0
Preemergence herbicidal rating ZEAMX (ZEAMX (Corn, Field); rate 0.1250 kg/ha): 1.0
Preemergence herbicidal rating ZEAMX (ZEAMX (Corn, Field); rate 0.2500 kg/ha): 3.0
Preemergence herbicidal rating IPOHE ([2]; rate 0.0313 kg/ha): 0.0
Preemergence herbicidal rating IPOHE ([2]; rate 0.0625 kg/ha): 1.0
Preemergence herbicidal rating IPOHE ([2]; rate 0.1250 kg/ha): 2.0
Preemergence herbicidal rating IPOHE ([2]; rate 0.2500 kg/ha): 9.0
Herbicidal rating CYPIR (CYPIR (Rice Flatsedge); 0.2500 kg/ha): 2.0
Postemergence herbicidal rating GALAP (GALAP (Galium); Rate 0.0158 kg/ha): 1.0
Postemergence herbicidal rating GALAP (GALAP (Galium); Rate 0.0315 kg/ha): 4.0
Postemergence herbicidal rating GALAP (GALAP (Galium); Rate 0.0630 kg/ha): 5.0
Preemergence herbicidal rating SETVI (SETVI (Foxtail, Green) [3]; rate 0.0313 kg/ha): 0.0
Preemergence herbicidal rating SETVI (SETVI (Foxtail, Green) [3]; rate 0.0625 kg/ha): 0.0
Preemergence herbicidal rating SETVI (SETVI (Foxtail, Green) [3]; rate 0.1250 kg/ha): 1.0
Preemergence herbicidal rating SETVI (SETVI (Foxtail, Green) [3]; rate 0.2500 kg/ha): 9.0
Preemergence herbicidal rating ECHCG (ECHCG (Barnyardgrass); rate 0.0313 kg/ha): 0.0
Preemergence herbicidal rating ECHCG (ECHCG (Barnyardgrass); rate 0.0625 kg/ha): 0.0
Preemergence herbicidal rating ECHCG (ECHCG (Barnyardgrass); rate 0.1250 kg/ha): 0.0
Preemergence herbicidal rating ECHCG (ECHCG (Barnyardgrass); rate 0.2500 kg/ha): 1.0
Herbicidal rating MOOVA (MOOVA (Monochoria); 0.2500 kg/ha): 4.0
Herbicidal rating SAGPY ([4]; rate 0.2500 kg/ha): 0.0
Postemergence herbicidal rating IPOHE ([5]; Rate 0.0158 kg/ha): 4.0
Postemergence herbicidal rating IPOHE ([5]; Rate 0.0315 kg/ha): 9.0
Postemergence herbicidal rating IPOHE ([5]; Rate 0.0630 kg/ha): 9.0
Postemergence herbicidal rating SETVI (SETVI (Foxtail, Green) [6]; Rate 0.0158 kg/ha): 1.0
Postemergence herbicidal rating SETVI (SETVI (Foxtail, Green) [6]; Rate 0.0315 kg/ha): 3.0
Postemergence herbicidal rating SETVI (SETVI (Foxtail, Green) [6]; Rate 0.0630 kg/ha): 7.0
Herbicidal rating ECHORC ([7]; rate 0.2500 kg/ha): 0.0
Herbicidal rating ECHORC ([8]; 0.2500 kg/ha): 0.0
